# Laboratory results published in ChEMBL document CHEMBL1201862, “PubChem BioAssay data set” (2004).
# Calls of active or inactive are those of the source.
# Experiments:
# [1] = biological target: T1, NADPH oxidase 1 (Homo sapiens, UniProt Q9Y5S8); assay: Late-stage luminescence-based cell-based dose response assay to identify inhibitors of NADPH oxidase 1 (NOX1): Synthesized analogs.; type: functional
# T1 sequence (Q9Y5S8 whole entry): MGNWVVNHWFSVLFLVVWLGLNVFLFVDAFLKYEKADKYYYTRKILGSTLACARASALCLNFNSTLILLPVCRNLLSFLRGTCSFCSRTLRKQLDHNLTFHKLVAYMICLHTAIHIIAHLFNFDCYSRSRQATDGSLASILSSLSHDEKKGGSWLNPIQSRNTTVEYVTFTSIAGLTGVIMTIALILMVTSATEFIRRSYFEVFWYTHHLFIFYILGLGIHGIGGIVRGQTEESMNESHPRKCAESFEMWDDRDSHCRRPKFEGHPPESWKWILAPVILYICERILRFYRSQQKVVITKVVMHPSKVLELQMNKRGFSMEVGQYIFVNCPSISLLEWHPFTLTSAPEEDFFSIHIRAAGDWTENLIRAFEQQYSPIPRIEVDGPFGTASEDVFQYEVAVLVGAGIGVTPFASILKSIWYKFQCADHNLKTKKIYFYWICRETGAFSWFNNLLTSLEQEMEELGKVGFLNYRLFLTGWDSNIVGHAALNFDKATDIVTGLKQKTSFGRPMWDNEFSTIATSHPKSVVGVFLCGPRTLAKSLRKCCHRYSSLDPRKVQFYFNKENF
# [2] = biological target: T1, NADPH oxidase 1; assay: Luminescence-based cell-based dose response assay to identify inhibitors of NADPH oxidase 1 (NOX1).; type: functional
# [3] = biological target: T2, Carboxy-terminal domain RNA polymerase II polypeptide A small phosphatase 1 (Homo sapiens, UniProt Q9GZU7); assay: CTDSP1 inhibitors, concentration-response, biochemical, absorbance readout, ultra-high-throughput screen actives (AID 540297); type: functional
# T2 sequence (Q9GZU7 whole entry): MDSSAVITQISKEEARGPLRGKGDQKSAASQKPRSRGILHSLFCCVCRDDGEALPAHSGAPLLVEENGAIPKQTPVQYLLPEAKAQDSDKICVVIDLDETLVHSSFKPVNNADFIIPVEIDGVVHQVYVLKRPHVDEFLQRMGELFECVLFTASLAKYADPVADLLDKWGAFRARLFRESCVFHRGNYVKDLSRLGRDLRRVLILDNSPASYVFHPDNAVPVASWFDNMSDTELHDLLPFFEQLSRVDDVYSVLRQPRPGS
# [4] = biological target: Aryl hydrocarbon receptor (Homo sapiens, UniProt P35869); assay: Luminescence-based cell-based high throughput dose response assay for activators of the Aryl Hydrocarbon Receptor (AHR). [Related pubchem assays: 2796 (Primary screen (AHR activators in singlicate)), 2845 (Confirmation screen (AHR activators in triplicate)), 434939 (Counterscreen (PXR activators in triplicate)), 2804 (Summary (AHR activators))]; type: ADME
# [5] = biological target: Mitochondrial peptide methionine sulfoxide reductase (Bos taurus, UniProt P54149); type: functional;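 also: absorbance read-out, biochemical high-throughput dose-response screen for MsrA inhibitors, confirmatory; recombinant bovine MsrA coupled to E. coli TrxB with NADPH and selenocystamine; potency is for inhibitors of MsrA activity on DMSO substrate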
# [6] = A High Throughput Confirmatory Assay used to Identify Novel Compounds that Inhibit Mycobacterium Tuberculosis in the absence of Glycerol.; type: functional
# [7] = biological target: Protein-tyrosine kinase 2-beta (Homo sapiens, UniProt Q14289);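 also: potency of inhibitors of PYK2 kinase phosphorylation of poly-GT substrate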
# [8] = system: SN12K1; assay: cells; type: functional; conditions: Homo sapiens
# [9] = biological target: T3, Mannose-6-phosphate isomerase (Homo sapiens, UniProt P34949); assay: MPI inhibition at elevated mannose 6-phosphate – biochemical, fluorescence intensity, high mannose 6-phosphate, primary screen (AID 1220)
# T3 sequence (P34949 whole entry): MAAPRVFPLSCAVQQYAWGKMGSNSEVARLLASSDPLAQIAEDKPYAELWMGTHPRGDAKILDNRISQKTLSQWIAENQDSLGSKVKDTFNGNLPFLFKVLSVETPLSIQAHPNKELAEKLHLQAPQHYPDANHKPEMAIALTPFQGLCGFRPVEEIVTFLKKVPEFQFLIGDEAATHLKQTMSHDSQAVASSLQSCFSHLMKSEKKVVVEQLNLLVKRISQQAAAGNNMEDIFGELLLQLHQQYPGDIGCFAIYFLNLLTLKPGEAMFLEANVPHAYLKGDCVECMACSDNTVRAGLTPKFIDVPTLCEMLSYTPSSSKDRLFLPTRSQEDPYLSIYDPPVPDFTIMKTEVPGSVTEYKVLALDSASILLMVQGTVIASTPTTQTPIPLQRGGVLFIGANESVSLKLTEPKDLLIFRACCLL
# [10] = Luminescence-based dose response cell-based high throughput screening assay for cytotoxic compounds using the IEC-6 intestinal epithelial cell line. [Related pubchem assays: 1858 (Summary AID.), 1825 (Counterscreen.), 1907 (Confirmation screen.)]; type: functional
# [11] = system: P388/ADR; assay: cells; type: functional; conditions: Mus musculus, P388/ADR
# [12] = viability loss in THP-1 monocytes – THP-1 cells, cytotoxicity control for Vif-APOBEC3G degradation inhibitor project, dose response (AID 1117359); type: functional; conditions: THP-1
# [13] = system: P388; assay: cells; type: functional; conditions: Mus musculus, P388
# [14] = biological target: T4, Bcl-2-related protein A1 (Mus musculus, UniProt Q07440); assay: Bfl-1 binding inhibitors, SAR follow-up, biochemical, fluorescence polarization (AID 1070)
# T4 sequence (Q07440 whole entry): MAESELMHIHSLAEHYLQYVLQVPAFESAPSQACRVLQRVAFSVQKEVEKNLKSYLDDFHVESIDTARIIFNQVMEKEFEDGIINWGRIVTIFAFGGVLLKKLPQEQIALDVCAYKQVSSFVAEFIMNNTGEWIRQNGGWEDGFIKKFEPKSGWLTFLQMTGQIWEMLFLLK
# [15] = biological target: Glyceraldehyde-3-phosphate dehydrogenase (Homo sapiens, UniProt P04406)
# [16] = biological target: T4, Bcl-2-related protein A1; assay: small-molecule antagonists of Bfl-1/BH3 interaction – biochemical, TR-FRET, mouse Bfl-1, confirmation (AID 621);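 also: TR-FRET binding of GST-Bfl-1 to FITC-labelled Bid peptide via terbium antibody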
# Sequence of Aryl hydrocarbon receptor (P35869 whole entry): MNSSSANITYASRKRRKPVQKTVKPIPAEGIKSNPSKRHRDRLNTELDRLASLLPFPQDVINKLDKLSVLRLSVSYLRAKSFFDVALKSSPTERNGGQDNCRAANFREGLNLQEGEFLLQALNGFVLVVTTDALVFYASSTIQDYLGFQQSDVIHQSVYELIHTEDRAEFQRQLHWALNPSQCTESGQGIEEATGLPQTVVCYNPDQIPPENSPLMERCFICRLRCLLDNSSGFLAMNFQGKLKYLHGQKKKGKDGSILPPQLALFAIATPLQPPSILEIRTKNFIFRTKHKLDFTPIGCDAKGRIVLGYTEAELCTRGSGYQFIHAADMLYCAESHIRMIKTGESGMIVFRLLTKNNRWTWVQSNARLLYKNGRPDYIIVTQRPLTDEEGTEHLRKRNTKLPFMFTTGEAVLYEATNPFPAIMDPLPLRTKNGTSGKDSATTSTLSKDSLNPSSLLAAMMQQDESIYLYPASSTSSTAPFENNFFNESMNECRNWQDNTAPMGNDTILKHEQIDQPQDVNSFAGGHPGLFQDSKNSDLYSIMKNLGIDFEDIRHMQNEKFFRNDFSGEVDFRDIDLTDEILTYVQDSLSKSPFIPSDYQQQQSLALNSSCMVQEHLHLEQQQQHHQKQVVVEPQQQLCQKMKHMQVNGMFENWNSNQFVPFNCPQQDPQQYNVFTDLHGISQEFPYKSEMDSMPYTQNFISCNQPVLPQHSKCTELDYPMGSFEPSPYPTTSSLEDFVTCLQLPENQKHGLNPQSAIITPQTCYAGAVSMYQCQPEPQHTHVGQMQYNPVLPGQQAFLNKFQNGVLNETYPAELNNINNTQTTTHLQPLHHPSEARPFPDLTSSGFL
# Sequence of Protein-tyrosine kinase 2-beta (Q14289 whole entry): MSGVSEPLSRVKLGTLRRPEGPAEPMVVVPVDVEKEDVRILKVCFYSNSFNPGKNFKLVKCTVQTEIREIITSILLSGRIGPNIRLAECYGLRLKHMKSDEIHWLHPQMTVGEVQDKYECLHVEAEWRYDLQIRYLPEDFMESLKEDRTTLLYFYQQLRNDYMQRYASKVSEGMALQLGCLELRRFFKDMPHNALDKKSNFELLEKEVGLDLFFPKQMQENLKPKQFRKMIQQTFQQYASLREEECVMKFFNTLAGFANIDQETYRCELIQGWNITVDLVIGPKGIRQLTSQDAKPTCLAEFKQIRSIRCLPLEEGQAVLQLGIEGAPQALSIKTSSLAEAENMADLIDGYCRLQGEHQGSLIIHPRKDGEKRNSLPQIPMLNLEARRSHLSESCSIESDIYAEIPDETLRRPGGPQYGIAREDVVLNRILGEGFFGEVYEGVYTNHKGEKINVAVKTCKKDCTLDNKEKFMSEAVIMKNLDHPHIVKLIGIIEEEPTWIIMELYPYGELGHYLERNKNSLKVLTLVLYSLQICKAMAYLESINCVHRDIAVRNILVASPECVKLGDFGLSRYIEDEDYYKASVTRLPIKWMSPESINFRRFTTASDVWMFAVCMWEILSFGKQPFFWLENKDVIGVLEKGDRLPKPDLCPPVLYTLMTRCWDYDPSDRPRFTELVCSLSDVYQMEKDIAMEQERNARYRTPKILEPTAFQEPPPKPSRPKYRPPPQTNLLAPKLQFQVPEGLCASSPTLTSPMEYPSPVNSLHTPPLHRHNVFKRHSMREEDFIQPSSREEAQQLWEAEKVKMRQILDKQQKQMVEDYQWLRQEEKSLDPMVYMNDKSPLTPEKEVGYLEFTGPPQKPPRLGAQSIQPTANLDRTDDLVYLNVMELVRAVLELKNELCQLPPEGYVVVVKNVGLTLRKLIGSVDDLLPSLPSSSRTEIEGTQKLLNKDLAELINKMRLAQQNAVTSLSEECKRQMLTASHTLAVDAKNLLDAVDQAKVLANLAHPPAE
# Sequence of Mitochondrial peptide methionine sulfoxide reductase (P54149 whole entry): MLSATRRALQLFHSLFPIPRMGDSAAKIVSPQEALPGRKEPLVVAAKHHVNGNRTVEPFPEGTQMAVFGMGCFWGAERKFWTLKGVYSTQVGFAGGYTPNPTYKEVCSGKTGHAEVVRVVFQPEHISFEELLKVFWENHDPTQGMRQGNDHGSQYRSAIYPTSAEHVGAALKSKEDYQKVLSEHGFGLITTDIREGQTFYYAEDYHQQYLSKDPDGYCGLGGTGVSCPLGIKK
# Sequence of Glyceraldehyde-3-phosphate dehydrogenase (P04406 whole entry): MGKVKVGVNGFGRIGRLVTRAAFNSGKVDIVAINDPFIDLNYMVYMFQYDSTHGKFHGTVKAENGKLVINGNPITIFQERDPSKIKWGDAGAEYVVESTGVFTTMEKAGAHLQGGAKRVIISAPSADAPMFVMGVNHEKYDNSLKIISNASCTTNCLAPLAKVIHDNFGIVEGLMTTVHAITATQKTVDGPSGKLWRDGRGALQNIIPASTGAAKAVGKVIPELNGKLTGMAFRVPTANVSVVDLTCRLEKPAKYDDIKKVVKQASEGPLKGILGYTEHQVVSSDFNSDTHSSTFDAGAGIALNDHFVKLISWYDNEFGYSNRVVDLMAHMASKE
smiles,measurement,setting,value
O=S1(=O)c2ccccc2Nc2ccccc21,IC50,[1],> 50 µM (not active)
same,IC50,[2],6.6 µM (active)
O=C(N/N=C/c1ccco1)c1ccc(C(=O)N/N=C/c2ccco2)o1,IC50,[3],4.92 µM (active)
same,EC50,[4],5.21 µM (active)
same,IC50,[5],114 µM (inactive)
CCc1nc2ccccc2c(C(=O)Nc2cc(C)ccc2C)c1C,IC50,[6],> 100 µM (active)
N#Cc1cnn2c1nc(N1CCOCC1)c1ccccc12,IC50,[7],> 69.5 µM (not active)
COC1=C(N)C(=O)c2nc(-c3nc(C(=O)O)c(C)c(-c4ccc(OC)c(OC)c4O)c3N)ccc2C1=O [STREPTONIGRIN],GI50,[8],< 10 nM (active)
same,IC50,[9],> 50 µM (not active)
same,IC50,[10],9.4 nM (active)
same,GI50,[11],28.7 nM (active)
same,CC50,[12],2.96 µM (active)
same,GI50,[13],35.2 nM (active)
O=C1C(Cl)=C(N2CCOCC2)C(=O)N1c1ccc(Cl)nc1,IC50,[14],12.6 µM (active)
same,IC50,[15],> 100 µM (not active)
same,IC50,[16],15.1 µM (active)
